Assay results as given in US10716771B2, “Pharmaceutical composition for preventing or treating immune diseases or inflammatory diseases, containing biguanide derivative compound as active ingredient” (THE CATHOLIC UNIVERSITY OF KOREA INDUSTRY-ACADEMIC …, priority 2013, dated 2020).

Legend:
TNF-α [1] = experiment: TNF-α generation in LPS-treated mouse spleen cells, ELISA; format: cell-based; conditions: 2, 20, 200 μM with LPS 100 ng/ml, 3 days; compared with only LPS
Description: Spleen cells were obtained from a normal mouse of C57BL/6 (Orient Company, Korea). That is, the tissue of the spleen extracted from the mouse was finely grinded by using a teasing slide and then erythrocytes in the spleen were removed by an erythrocyte hemolysis solution. Thereafter, a PBS buffer solution was added, centrifuged, and washed to obtain spleen cells.
Since it is known that Metformin used as the diabetes therapeutic agent currently on the market has a slight effect of blocking TNF-α as the inflammatory cytokine, in order to verify whether the biguanide derivative compound of the present invention has activity of reducing the generation of TNF-α, the expression degree of TNF-α was measured by an ELISA assay. […]
In order to measure an amount of the generated TNF-α cytokine, a supernatant of the incubated cells was collected and the TNF-α generation degree was examined by using an ELISA. […] Thereafter, a PNPP/DEA solution was added and colored, and then the absorbance was measured at a wavelength of 405 nm.

[2] = tested on: cells isolated from the spleen; experiment: Cytotoxicity MTT assay, Example 8-1 (rheumatoid arthritis evaluation); format: cell-based; conditions: mouse spleen cells, anti-CD3 0.5 μg/ml or LPS 100 ng/ml, 3 days
Description: In order to evaluate an arthritis therapeutic effect of the biguanide derivative compound of the present invention, in a rheumatoid arthritis animal model, cytotoxicity, generation of autoantibody, expression of inflammatory cytokines and regulatory T cells (Treg), and osteoclast differentiation were measured. Like Examples, metformin was used as a control group. In order to examine cytotoxicity of the biguanide derivative compound of the present invention, an MTT assay was performed. Cells were isolated from the spleen in a normal mouse group and the isolated cells were incubated for 3 days in the concentration of 0.5 μg/ml of anti-CD3 or 100 ng/ml of LPS 100, and metformin, SD-196, SD-216 or SD-217 was treated for each concentration and incubated for 3 days.

normal cells = experiment: Cytotoxicity (MTT) in normal (human) cells; format: cell-based
Description: In order to examine cytotoxicity of the biguanide derivative compound of the present invention, an MTT assay was performed. Cells were isolated from the spleen in a normal mouse group and the isolated cells were incubated for 3 days in the concentration of 0.5 μg/ml of anti-CD3 or 100 ng/ml of LPS 100, and metformin, SD-196, SD-216 or SD-217 was treated for each concentration and incubated for 3 days. […] In order to evaluate a development possibility of the biguanide derivative compound of the present invention as an agent for preventing or treating immune diseases, effects of modulating cytotoxicity and generation of inflammatory cytokines by targeting normal cells were measured by the same method as Example 8.

Th17 = Th17 activity in lupus animal model; format: cell-based
Description: Further, the incubated cells were analyzed by flow cytometry using anti-CD4-percp and anti-IL-17-Pe fluorescent antibodies, and as a result, it was verified that SD-196, 216 and 217 suppressed the activity of Th17 and simultaneously activated the expression of the regulatory T cells (Treg) (see FIG. 13).
(§1) In order to evaluate a lupus therapeutic effect of the biguanide derivative compound of the present invention, in a lupus animal model, cytotoxicity, autoantibody generation, generation of inflammatory cytokines, and Th17 regulation were measured by the same method as Example 8.

osteoclast = experiment: Osteoclast differentiation, TRAP staining; format: cell-based, mouse; conditions: bone marrow of arthritis animal model, MCSF 10 ng/ml and RANKL 50 ng/ml
Description: In order to verify whether the biguanide derivative compound of the present invention suppresses the osteoclast differentiation, while a bone marrow extracted from a leg in an arthritis animal model was treated with MCSF (10 ng/ml) and RANKL (50 ng/ml) to differentiate the osteoclast, metformin, SD-196, SD-216, and SD-217 were treated, respectively, and the differentiation degrees of the osteoclast were evaluated. The evaluation was performed by using TRAP straining.

IL-17 = IL-17 expression in lupus animal model; format: cell-based
Description: (§2) In order to evaluate an effect of suppressing the expression of the inflammatory cytokine of the biguanide derivative compound of the present invention, the incubated supernatant was collected and the expression degrees of IL-17 and TNF-α of a mouse were examined by using a sandwich ELISA. […] of a monoclonal anti-IL-17 or anti-TNF-α was reacted in a 96-well plate at 4° C. overnight and then a non-specific binding was blocked by a blocking solution (1% BSA/PBST) after the reaction. An IL-17 or TNF-α recombinant was continuously diluted by 1/2 to be used as a standard, added with the cell-incubated supernatant, and reacted at room temperature for 2 hrs. Thereafter, biotinylated anti-IL-17 or anti-TNF-α was added and reacted at room temperature for 2 hrs, washed four times after the reaction, diluted with a diluted ExtraAvidin-alkaline phosphatase conjugate, and reacted at room temperature for 2 hrs. After the reaction, a PNPP/DEA was added and colored, and absorbance was measured at a wavelength of 405 nm.
as §1

TNF-α [3] = experiment: TNF-α expression in lupus animal model; format: cell-based
Description: as §2, §1

TNF-α [4] = experiment: TNF-α expression in normal (human) cells; format: cell-based; conditions: compared with metformin
Description: as §2
In order to evaluate a development possibility of the biguanide derivative compound of the present invention as an agent for preventing or treating immune diseases, effects of modulating cytotoxicity and generation of inflammatory cytokines by targeting normal cells were measured by the same method as Example 8.

Row | SMILES | generated amount of TNF-α (TNF-α [1]) | cytotoxicity (MTT assay) [2] | cytotoxicity (normal cells) | activity of Th17 (Th17) | differentiation of the osteoclast (osteoclast) | expression of IL-17 (IL-17) | expression of TNF-α (TNF-α [3]) | expression of TNF-α (TNF-α [4])
1 | N=C(N)NC(=N)Nc1ccc(F)cc1F [SD-000217, 1-(2,4-difluorophenyl)biguanide] | very significantly reduced | no cytotoxicity | no cytotoxicity | suppressed | significantly suppress | suppressed | suppressed | suppressed
2 | CC(C)NC(=N)NC(=N)N [SD-000196, 1-isopropylbiguanide] |  | no cytotoxicity |  | suppressed | significantly suppress | suppressed | suppressed | 
3 | NC(N)=N/C(N)=N/c1cccc(F)c1 [SD-000216, 1-(3-fluorophenyl)biguanide] | very significantly reduced | no cytotoxicity | no cytotoxicity | suppressed | significantly suppress | suppressed | suppressed | suppressed
